Like-named read-outs stand apart in the source and are kept apart here.
Assays:
[1] = target: T1, OATP1B3 (Homo sapiens, UniProt Q9NPD5); assay: Inhibition of OATP1B3-mediated [3H]estradiol-17β-D-glucuronide uptake in HEK293-OATP1B3 cells
T1 sequence (Q9NPD5 1-702): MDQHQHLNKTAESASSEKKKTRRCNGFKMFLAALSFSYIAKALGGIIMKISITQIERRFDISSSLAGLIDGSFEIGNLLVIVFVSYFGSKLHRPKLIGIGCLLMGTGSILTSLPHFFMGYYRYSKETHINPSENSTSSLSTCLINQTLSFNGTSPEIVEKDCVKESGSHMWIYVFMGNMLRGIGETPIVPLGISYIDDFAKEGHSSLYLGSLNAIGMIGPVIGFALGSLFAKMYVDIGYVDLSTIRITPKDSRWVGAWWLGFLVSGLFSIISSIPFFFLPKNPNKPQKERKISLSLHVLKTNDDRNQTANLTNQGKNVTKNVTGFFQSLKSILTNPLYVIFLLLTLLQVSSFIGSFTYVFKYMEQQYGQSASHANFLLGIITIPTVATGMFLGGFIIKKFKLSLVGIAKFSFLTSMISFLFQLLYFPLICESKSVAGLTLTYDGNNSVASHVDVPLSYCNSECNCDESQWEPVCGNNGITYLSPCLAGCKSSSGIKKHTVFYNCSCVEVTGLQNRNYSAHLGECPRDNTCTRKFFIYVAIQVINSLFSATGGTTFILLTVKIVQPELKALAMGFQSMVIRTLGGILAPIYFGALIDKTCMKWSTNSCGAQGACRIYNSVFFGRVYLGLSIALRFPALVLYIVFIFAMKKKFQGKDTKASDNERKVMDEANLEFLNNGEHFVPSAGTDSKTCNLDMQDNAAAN
Experimental: (§1) HEK293 cells overexpressing the OCT1, OCT2, OAT1, OAT3, OATP1B1, and OATP1B3 transporters (HEK293-OCT1, -OCT2, -OAT1, -OAT3, -OATP1B1, and -OATP1B3, respectively) and HEK293-mock cells (Corning Life Sciences; Woburn, MA, USA) were used and characterized as previously described.
(§2) HEK293 cells overexpressing drug transporters and HEK293-mock cells were seeded in poly-D-lysine-coated 96-well plates at a density of 10^5 cells/well and were cultured in DMEM supplemented with 10% FBS, 5 mM non-essential amino acids, and 2 mM sodium butyrate in a humidified atmosphere with 8% CO2 at 37 °C.
(§3) To examine the effects of ginsenosides and typical inhibitors on transporter activity, aliquots (100 μL) of HBSS containing the probe substrate and ginsenosides or typical inhibitors were added to the cells after aspirating pre-incubated HBSS. The concentrations and probe substrates were as follows: 0.1 μM [^3H]MPP^+ for OCT1 and OCT2, 0.1 μM [^3H]PAH for OAT1, 0.1 μM [^3H]ES for OAT3 and OATP1B1, and 0.1 μM [^3H]EG for OATP1B3. […] Then the uptake of probe substrates into HEK293-mock cells and HEK293-OCT1, -OCT2, -OAT1, -OAT3, -OATP1B1, and -OATP1B3 cells in the presence and absence of typical inhibitor or each ginsenoside with previously described concentration range was measured for 5 min. Immediately after placing the plates on ice, the cells were washed three times with 100 μL of ice-cold HBSS, followed by lysing with 50 μL of 10% SDS solution and mixing with 150 μL of Optiphase cocktail solution (Perkin Elmer Inc., Boston, MA, USA). The radioactivity of the probe substrates in the cells was determined using a liquid scintillation counter.
(§4) In the inhibition studies, the uptake rate of substrate by HEK293 cells overexpressing the respective transporters was used as the control (100%) and the uptake rate of substrates in the presence of typical inhibitors or ginsenosides expressed as a percentage of the control. The inhibition data were fitted to an inhibitory effect model using Sigma plot (version 10.0; Systat Software Inc., San Jose, CA, USA). IC50 value indicated the half-maximal inhibitory concentration of the inhibitor.

[2] = Plasma pharmacokinetics of ginsenosides in rats after 1-week repeated RGE; conditions: for maximum plasma concentration (molar): after RGE 1.5 g/kg/day po for 7 days; for detection in rat plasma: LC-MS/MS
Experimental: The rats were randomly divided into the control and RGE groups. The RGE group received a RGE suspension (1.5 g/mL/kg/day, in distilled water) for 7 days via oral gavage. The control group received distilled water for 7 days via oral gavage. After 1 h following the last RGE treatment, valsartan was injected intravenously to both groups via the tail vein at 1 mg/mL/kg (dissolved in DMSO: saline = 2:8, v/v). […] After centrifugation of the blood samples at 16,000× g for 10 min, aliquots (50 μL each) of plasma samples were stored at −80 °C until the analysis of ginsenosides and valsartan.
The residue was reconstituted with 100 μL of 70% methanol consisting of 0.1% formic acid. An aliquot (20 μL) from the sample was injected into the LC-MS/MS system.
After freezing the aqueous layer at −80 °C for 2 h, the upper organic layer was transferred to a clean tube and evaporated to dryness. […] An aliquot (20 μL) from the sample was injected into the LC-MS/MS system. The samples were eluted through an Omega Polar C18 column (2.1 mm × 100 mm, 3 µm particle size) (Phenomenex, Torrance, CA, USA) using a mobile phase consisting of 0.1% formic acid in water: 0.1% formic acid in methanol (15:85, v/v) at a flow rate of 0.2 mL/min.
Pharmacokinetic parameters were calculated from plasma concentration-time profile using non-compartment analysis of WinNonlin (version 5.1; Pharsights, Cary, NC, USA). The statistical significance was assessed by t-test using Statistical Package for the Social Sciences (version 24.0; SPSS Inc., Chicago, IL, USA).

[3] = target: T2, OCT2 (Homo sapiens, UniProt O15244); assay: Inhibition of OCT2-mediated [3H]MPP+ uptake in HEK293-OCT2 cells
T2 sequence (O15244 1-555): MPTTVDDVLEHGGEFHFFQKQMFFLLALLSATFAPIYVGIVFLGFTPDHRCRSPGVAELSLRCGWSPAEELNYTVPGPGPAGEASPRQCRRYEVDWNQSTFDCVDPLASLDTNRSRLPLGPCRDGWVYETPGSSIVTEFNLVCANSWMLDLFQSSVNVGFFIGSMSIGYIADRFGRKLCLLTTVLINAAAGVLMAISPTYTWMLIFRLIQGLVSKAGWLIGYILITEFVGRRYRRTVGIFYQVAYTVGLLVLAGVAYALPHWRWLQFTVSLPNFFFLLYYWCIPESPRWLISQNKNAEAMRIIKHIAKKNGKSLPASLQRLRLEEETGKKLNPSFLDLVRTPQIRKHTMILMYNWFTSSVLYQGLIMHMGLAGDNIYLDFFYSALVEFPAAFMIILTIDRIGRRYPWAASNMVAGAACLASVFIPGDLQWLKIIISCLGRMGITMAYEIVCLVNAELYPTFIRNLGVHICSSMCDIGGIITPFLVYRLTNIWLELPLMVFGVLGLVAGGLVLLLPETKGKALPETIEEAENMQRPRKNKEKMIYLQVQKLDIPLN
Experimental: as §1, §2, §3, §4

[4] = read-out: IC50 OATP1B3, HEK293-OATP1B3, 0.1 μM [3H]EG uptake, 5 min
[5] = after RGE 1.5 g/kg/day po for 1 week
[6] = read-out: IC50 OCT2, HEK293-OCT2, 0.1 μM [3H]MPP+ uptake, 5 min
[7] = rat plasma, after RGE 1.5 g/kg/day po for 1 week
[8] = HEK293-OATP1B3, 0.1 μM [3H]EG uptake, 5 min

SMILES	IC50 [1] [µM]	maximum plasma concentration (molar) ([2]; rat plasma) [nM]	AUC ([2]; rat, plasma, po, 1.5 g/kg/day) [ng·h/mL]	Cmax ([2]; rat, plasma, po, 1.5 g/kg/day) [ng/mL]	MRT ([2]; rat, plasma, po, 1.5 g/kg/day) [h]	Tmax ([2]; rat, plasma, po, 1.5 g/kg/day) [h]	half-life ([2]; rat, plasma, po, 1.5 g/kg/day) [h]	IC50 [3] [µM]	IC50 [1, 4] [µM]	detection in rat plasma [2, 5]	IC50 [3, 6] [µM]	other results
CC(C)=CCC[C@](C)(O[C@@H]1O[C@H](CO[C@@H]2OC[C@H](O)[C@H](O)[C@H]2O)[C@@H](O)[C@H](O)[C@H]1O)[C@H]1CC[C@]2(C)[C@@H]1[C@H](O)C[C@@H]1[C@@]3(C)CC[C@H](O[C@@H]4O[C@H](CO)[C@@H](O)[C@H](O)[C@H]4O[C@@H]4O[C@H](CO)[C@@H](O)[C@H](O)[C@H]4O)C(C)(C)[C@@H]3CC[C@]12C [Rb2, ginsenoside Rb2]	1.76	9.1	283 ± 58.9	10 ± 1.04	18.6 ± 1.43	3.33 ± 1.15	30.2 ± 5.48	> 100	–	–	–	–
CC(C)=CCC[C@](C)(O[C@@H]1O[C@H](CO[C@@H]2O[C@@H](CO)[C@H](O)[C@H]2O)[C@@H](O)[C@H](O)[C@H]1O)[C@H]1CC[C@]2(C)[C@@H]1[C@H](O)C[C@@H]1[C@@]3(C)CC[C@H](O[C@@H]4O[C@H](CO)[C@@H](O)[C@H](O)[C@H]4O[C@@H]4O[C@H](CO)[C@@H](O)[C@H](O)[C@H]4O)C(C)(C)[C@@H]3CC[C@]12C [Rc, ginsenoside Rc]	1.36	10.6	321 ± 97.2	11.7 ± 2.49	18.4 ± 1.89	3.33 ± 1.15	24.2 ± 7.51	> 100	–	–	–	–
CC(C)=CCC[C@](C)(O)[C@H]1CC[C@]2(C)[C@@H]1[C@H](O)C[C@@H]1[C@@]3(C)CC[C@H](O[C@@H]4O[C@H](CO)[C@@H](O)[C@H](O)[C@H]4O[C@@H]4O[C@H](CO)[C@@H](O)[C@H](O)[C@H]4O)C(C)(C)[C@@H]3CC[C@]12C [Rg3, ginsenoside Rg3]	–	–	–	–	–	–	–	–	5.13	not detected	> 100	–
CC(C)=CCC[C@](C)(O[C@@H]1O[C@H](CO)[C@@H](O)[C@H](O)[C@H]1O)[C@H]1CC[C@]2(C)[C@@H]1[C@H](O)C[C@@H]1[C@@]3(C)CC[C@H](O)C(C)(C)[C@@H]3CC[C@]12C [Compound K, compound K]	–	–	–	–	–	–	–	–	8.25	not detected	> 100	–
CC(C)=CCCC(C)(O)[C@H]1CC[C@]2(C)[C@@H]1[C@H](O)C[C@@H]1[C@@]3(C)CC[C@H](O)C(C)(C)[C@@H]3CC[C@]12C (stereo in doubt) [PPD, protopanaxadiol]	–	48.4	–	–	–	–	–	–	> 100	detected	> 100	AUC ([2]; rat plasma, 0 to 48 h, after RGE 1.5 g/kg/day po for 1 week): 542.01 ± 141.09 ng·h/mL; Cmax [2, 7]: 20.56 ± 9.47 ng/mL; MRT [2, 7]: 21.56 ± 3.31 h; T1/2 [2, 7]: 26.95 ± 18.33 h; Tmax [2, 7]: 16.50 ± 12.48 h
CC(C)=CCC[C@](C)(O[C@@H]1O[C@H](CO)[C@@H](O)[C@H](O)[C@H]1O)[C@H]1CC[C@]2(C)[C@@H]1[C@H](O)C[C@@H]1[C@@]3(C)CC[C@H](O[C@@H]4O[C@H](CO)[C@@H](O)[C@H](O)[C@H]4O[C@@H]4O[C@H](CO)[C@@H](O)[C@H](O)[C@H]4O)C(C)(C)[C@@H]3CC[C@]12C [Rd, ginsenoside Rd]	25.8	5.3	164 ± 39.1	5.1 ± 0.74	20.8 ± 1.68	2.17 ± 1.76	43.5 ± 17.5	> 100	–	–	–	–
CC(C)=CCC[C@](C)(O)[C@H]1CC[C@]2(C)[C@@H]1[C@H](O)C[C@@H]1[C@@]3(C)CC[C@H](O[C@@H]4O[C@H](CO)[C@@H](O)[C@H](O)[C@H]4O)C(C)(C)[C@@H]3CC[C@]12C [Rh2, ginsenoside Rh2]	30.8	–	–	–	–	–	–	> 100	–	not detected	–	–
CC(C)=CCC[C@](C)(O[C@@H]1O[C@H](CO)[C@@H](O)[C@H](O)[C@H]1O)[C@H]1CC[C@]2(C)[C@@H]1[C@H](O)C[C@@H]1[C@@]3(C)CC[C@H](O)C(C)(C)[C@@H]3[C@@H](O[C@@H]3O[C@H](CO)[C@@H](O)[C@H](O)[C@H]3O)C[C@]12C [Rg1, ginsenoside Rg1]	> 100	–	–	–	–	–	–	> 100	–	not detected	–	IC50 OATP1B3 [1, 8]: did not inhibit
CC(C)=CCC[C@](C)(O)[C@H]1CC[C@]2(C)[C@@H]1[C@H](O)C[C@@H]1[C@@]3(C)CC[C@H](O)C(C)(C)[C@@H]3[C@@H](O[C@@H]3O[C@H](CO)[C@@H](O)[C@H](O)[C@H]3O)C[C@]12C [Rh1, ginsenoside Rh1]	> 100	–	–	–	–	–	–	> 100	–	not detected	–	IC50 OATP1B3 [1, 8]: did not inhibit

From publication PMC7037682, “Herb–Drug Interaction of Red Ginseng Extract and Ginsenoside Rc with Valsartan in Rats” (Molecules, 2020)
